The values that follow come from patent US20250120927A1, “CNDP2 MODULATORS AND METHODS FOR THEIR USE” (Metabolon Inc., priority 2023, published 2025).

Values joined by “and” are separate entries in the source; they are usually repeats but may differ in a detail not shown here. Equal values may be shown once. Where a name gives a salt, the structure may show the parent alone.

Chain of CNDP2 (Q96KP4 whole entry): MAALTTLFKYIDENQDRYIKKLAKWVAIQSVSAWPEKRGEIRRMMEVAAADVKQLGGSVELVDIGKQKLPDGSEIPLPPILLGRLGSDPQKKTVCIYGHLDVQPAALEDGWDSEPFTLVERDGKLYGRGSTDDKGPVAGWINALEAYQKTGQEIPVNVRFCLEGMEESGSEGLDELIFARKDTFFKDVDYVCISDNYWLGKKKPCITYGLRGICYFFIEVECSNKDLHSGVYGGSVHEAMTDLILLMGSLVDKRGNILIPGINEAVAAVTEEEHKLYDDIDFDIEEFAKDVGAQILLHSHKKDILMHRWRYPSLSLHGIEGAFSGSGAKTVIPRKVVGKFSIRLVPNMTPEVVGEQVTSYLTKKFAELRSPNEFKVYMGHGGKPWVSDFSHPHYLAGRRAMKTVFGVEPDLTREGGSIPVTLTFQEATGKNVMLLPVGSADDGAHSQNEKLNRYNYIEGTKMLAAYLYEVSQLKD

The first assay addresses CNDP2 (Homo sapiens (Human), UniProt Q96KP4). Put plainly: CNDP2 enzyme inhibition assay (Met-His hydrolysis, free histidine by o-phthaldialdehyde fluorescence), dose-response. It is filed as biochemical. The conditions noted are these: 50 nM purified CNDP2 (Sino Biological), 1 mM Met-His substrate, 30 minutes at 37° C.; TABLE 1. The procedure:
To identify optimal conditions for identifying novel inhibitors of CNDP2, enzyme assays were performed with varied sources of purified enzyme, concentrations of enzyme, peptide substrates, concentrations of peptide substrates and metal cofactors. […] The reaction mixture was incubated for 30 minutes at 37° C. before it was quenched with an equal volume of 1% TCA. Free histidine was quantified after derivatization with a fluorophore (o-phthaldialdehyde from Sigma-Aldrich, excitation 340 nm, emission 460 nm). The reaction was conducted in an automation-friendly format to meet future screening throughput demands. A histidine titration standard curve was also included to enable conversion of fluorescence signal to molar concentration of histidine released by the hydrolysis reaction and to ensure the linearity of the fluorescence signal vs. free histidine.
Compounds of Formula (I) disclosed herein were screened for potency in inhibiting CNDP2 enzyme activity in a dose-response experiment. Bestatin was included with each batch of test molecules as a benchmark for assay quality control.
A word on the IC50: it is the concentration that gives 50% inhibition. Lower therefore signals higher potency. With `N[C@H](Cc1ccccc1)[C@H](O)C(=O)NC(C(=O)O)C1CCCCCC1` (some centres unmarked) [Compound 30], the IC50 lay within 100 to 1000 nM.
Consider `N[C@H](Cc1ccccc1)[C@H](O)C(=O)N[C@H](C(=O)O)c1cccnc1` [Compound 9, (2S)-2-[[(2S,3R)-3-amino-2-hydroxy-4-phenyl-butanoyl]amino]-2-(3-pyridyl)acetic acid], for which the IC50 was not below 1000 nM.
For `N[C@H](Cc1ccccc1)[C@H](O)C(=O)NC(CC1CCOCC1)C(=O)O` (stereo partly drawn) [Compound 23, 2-[[(2S,3R)-3-amino-2-hydroxy-4-phenyl-butanoyl]amino]-3-tetrahydropyran-4-yl-propanoic acid], the IC50 is less than 100 nM.
The compound `N[C@H](Cc1ccccc1)[C@H](O)C(=O)N[C@@H](Cc1cccc(Br)c1)C(=O)O` [Compound 33] yielded a concentration for half-maximal inhibition (IC50) not below 1000 nM.
Turning to `N[C@H](Cc1ccccc1)[C@H](O)C(=O)N[C@@H](Cc1ccccc1C(F)(F)F)C(=O)O` [Compound 11, 2-[[(2S,3R)-3-amino-2-hydroxy-4-phenyl-butanoyl]amino]-3-[2-(trifluoromethyl)phenyl]propanoic acid], the IC50 is not below 1000 nM.
On the same count and under the same terms, the result for `N[C@H](Cc1ccccc1)[C@H](O)C(=O)N[C@H](C(=O)O)C1CCC(F)(F)CC1` [Compound 34] reads 100 to 1000 nM.
For `CCC(c1ccccc1)C(NC(=O)[C@@H](O)[C@H](N)Cc1ccccc1)C(=O)O` (stereo partly drawn) [Compound 24, 2-[[(2S,3R)-3-amino-2-hydroxy-4-phenyl-butanoyl]amino]-3-phenyl-pentanoic acid], the IC50 was not below 1000 nM.
For the compound `N[C@H](Cc1ccccc1)[C@H](O)C(=O)N[C@@H](Cc1ccc(F)cc1)C(=O)O` [Compound 1, (S)-2-((2S,3R)-3-amino-2-hydroxy-4-phenylbutanamido)-3-(4-fluorophenyl)propanoic acid], the IC50 was not below 1000 nM.
For `COc1ccc(C[C@H](NC(=O)[C@@H](O)[C@H](N)Cc2ccccc2)C(=O)O)cc1` [Compound 18, (2S)-2-[[(2S,3R)-3-amino-2-hydroxy-4-phenyl-butanoyl]amino]-3-(4-methoxyphenyl)propanoic acid], the IC50 is not below 1000 nM.
The compound `N[C@H](Cc1ccccc1)[C@H](O)C(=O)N[C@H](C(=O)O)C1CCCC1` [Compound 4, (2S)-2-[[(2S,3R)-3-amino-2-hydroxy-4-phenyl-butanoyl]amino]-2-cyclopentyl-acetic acid] had an IC50 of 100 to 1000 nM.
For the compound `N[C@H](Cc1ccccc1)[C@H](O)C(=O)NC(CC1CCCC1)C(=O)O` (stereo partly drawn) [Compound 17, 2-[[(2S,3R)-3-amino-2-hydroxy-4-phenyl-butanoyl]amino]-3-cyclopentyl-propanoic acid], the IC50 was less than 100 nM.
Consider `NC(=O)C(NC(=O)[C@@H](O)[C@H](N)Cc1ccccc1)c1cccc(C(F)(F)F)c1` (some centres unmarked) [Compound 42], for which the IC50 is not below 1000 nM.
As to `N[C@H](Cc1ccccc1)[C@H](O)C(=O)NC(Cc1ccc(C(F)(F)F)cc1)C(=O)O` (stereo partly drawn) [Compound 16, 2-[[(2S,3R)-3-amino-2-hydroxy-4-phenyl-butanoyl]amino]-3-[4-(trifluoromethyl)phenyl]propanoic acid], the IC50 lay in the range of 100 to 1000 nM.
Turning to `COc1ccccc1[C@H](NC(=O)[C@@H](O)[C@H](N)Cc1ccccc1)C(=O)O` [Compound 8, (2S)-2-[[(2S,3R)-3-amino-2-hydroxy-4-phenyl-butanoyl]amino]-2-(2-methoxyphenyl)acetic acid], the concentration for half-maximal inhibition (IC50) was not below 1000 nM.
`N[C@H](Cc1ccccc1)[C@H](O)C(=O)NC(c1cccc(C(F)(F)F)c1)c1nnn[nH]1` (some centres unmarked) [Compound 43] returned an IC50 not below 1000 nM.
Compound `NC(Cc1cccc(OC(F)(F)F)c1)C(O)C(=O)N[C@H](C(=O)O)c1cccc(OC(F)(F)F)c1` (some centres unmarked) [Compound 57] returned an IC50 not below 1000 nM.
Compound `N[C@H](Cc1ccccc1)[C@H](O)C(=O)N[C@@H](Cc1ccc(Br)cc1)C(=O)O` [Compound 25, 2-[[(2S,3R)-3-amino-2-hydroxy-4-phenyl-butanoyl]amino]-3-(4-bromophenyl)propanoic acid] came in with an IC50 of less than 100 nM.
On the same count and under the same terms, in the case of `N[C@H](Cc1ccccc1)[C@H](O)C(=O)N[C@@H](Cc1ccc(O)cc1)C(=O)O` [Compound 19, 2-[[(2S,3R)-3-amino-2-hydroxy-4-phenyl-butanoyl]amino]-3-(4-hydroxyphenyl)propanoic acid] it was not below 1000 nM; in that of `CC(c1ccccc1)[C@H](NC(=O)[C@@H](O)[C@H](N)Cc1ccccc1)C(=O)O` (stereo partly drawn) [Compound 14, 2-[[(2S,3R)-3-amino-2-hydroxy-4-phenyl-butanoyl]amino]-3-phenyl-butanoic acid], not below 1000 nM.

The assay is the same for the next values; noted with them: 50 nM purified CNDP2 (Sino Biological), 1 mM Met-His substrate, 30 minutes at 37° C.; TABLE 2.
As to `N[C@H](Cc1ccccc1)[C@H](O)C(=O)N[C@@H](Cc1cccc(OC(F)(F)F)c1)C(=O)O` [Compound 118, (S)-2-((2S,3R)-3-amino-2-hydroxy-4-phenylbutanamido)-3-(3-(trifluoromethoxy)phenyl)propanoic acid], the IC50 was less than 100 nM.
In turn, `N[C@H](Cc1ccccc1)[C@H](O)C(=O)NC(C(=O)O)c1cccc(OC(F)F)c1` (some centres unmarked) [Compound 65] registered an IC50 of less than 100 nM.
On to `N[C@H](Cc1ccccc1)[C@H](O)C(=O)N[C@@H](c1cccc(OC(F)(F)F)c1)c1n[nH]c(=O)o1` [Compound 75], for which the IC50 was not below 1000 nM.
As for `N[C@H](Cc1ccccc1)[C@H](O)C(=O)N[C@@H](C(=O)O)c1cccc(C(F)(F)F)c1Cl` [Compound 86, (R)-2-((2S,3R)-3-amino-2-hydroxy-4-phenylbutanamido)-2-(2-chloro-3-(trifluoromethyl)phenyl)acetic acid], the IC50 is not below 1000 nM.
On to `N[C@H](Cc1ccccc1)[C@H](O)C(=O)N[C@@H](CN1CCCC(F)(F)C1)C(=O)O` [Compound 82], for which the IC50 is not below 1000 nM.
In the case of `N[C@H](Cc1ccccc1)[C@H](O)C(=O)N[C@@H](C(=O)O)c1cc(Cl)cc(OC(F)(F)F)c1` [Compound 108, (R)-2-((2S,3R)-3-amino-2-hydroxy-4-phenylbutanamido)-2-(3-chloro-5-(trifluoromethoxy)phenyl)acetic acid hydrochloride], the IC50 is not below 1000 nM.
In turn, `C[C@](NC(=O)[C@@H](O)[C@H](N)Cc1ccccc1)(C(=O)O)c1cccc(C(F)(F)F)c1` [Compound 84, (R)-2-((2S,3R)-3-amino-2-hydroxy-4-phenylbutanamido)-2-(3-(trifluoromethyl)phenyl)propanoic acid] yielded an IC50 not below 1000 nM.
`N[C@H](Cc1ccc(Br)cc1)[C@H](O)C(=O)N[C@@H](C(=O)O)c1cccc(OC(F)(F)F)c1` [Compound 130, (R)-2-((2S,3R)-3-amino-4-(4-bromophenyl)-2-hydroxybutanamido)-2-(3-(trifluoromethoxy)phenyl)acetic acid]: the IC50 was not below 1000 nM.
Turning to `N[C@H](Cc1ccccc1)[C@H](O)C(=O)N[C@H](C(=O)O)c1ccc(F)c(C(F)(F)F)c1F` [Compound 97, (S)-2-((2S,3R)-3-amino-2-hydroxy-4-phenylbutanamido)-2-(2,4-difluoro-3-(trifluoromethyl)phenyl)acetic acid], the IC50 was 100 to 1000 nM.
`N[C@H](Cc1ccccc1)[C@H](O)C(=O)N[C@@H](C(=O)O)c1ccc(F)c(OC(F)(F)F)c1` [Compound 104, (R)-2-((2S,3R)-3-amino-2-hydroxy-4-phenylbutanamido)-2-(4-fluoro-3-(trifluoromethoxy)phenyl)acetic acid] returned an IC50 not below 1000 nM.
On the same count and under the same terms, in the case of `N[C@H](Cc1ccccc1)[C@H](O)C(=O)N[C@@H](CN1CCC(F)(F)C1)C(=O)O` [Compound 83] it was not below 1000 nM; in that of `N[C@H](Cc1ccccc1)[C@H](O)C(=O)N[C@H](C(=O)O)c1ccc(Cl)c(OC(F)(F)F)c1` [Compound 107, (S)-2-((2S,3R)-3-amino-2-hydroxy-4-phenylbutanamido)-2-(4-chloro-3-(trifluoromethoxy)phenyl)acetic acid hydrochloride], less than 100 nM.
For `N[C@H](Cc1ccccc1)[C@H](O)C(=O)N[C@H](C(=O)O)c1cccc2c1OC(F)(F)O2` [Compound 115, (S)-2-((2S,3R)-3-amino-2-hydroxy-4-phenylbutanamido)-2-(2,2-difluorobenzo[d][1,3]dioxol-4-yl)acetic acid hydrochloride], the IC50 is ≥ 1000 nM and 100 to 1000 nM.
In turn, `N[C@H](Cc1ccccc1)[C@H](O)C(=O)N[C@@H](Cc1ccc(OC(F)(F)F)c(F)c1)C(=O)O` [Compound 119, (S)-2-((2S,3R)-3-amino-2-hydroxy-4-phenylbutanamido)-3-(3-fluoro-4-(trifluoromethoxy)phenyl)propanoic acid] returned an IC50 of 100 to 1000 nM.
For the compound `N[C@H](Cc1ccccc1)[C@H](O)C(=O)NC(C(=O)O)c1ccc(F)c(C(F)(F)F)c1` (some centres unmarked) [Compound 69], the IC50 is less than 100 nM.
In the case of `N[C@H](Cc1ccccc1)[C@H](O)C(=O)NC(C(=O)O)c1cc(F)cc(C(F)(F)F)c1` (some centres unmarked) [Compound 68], the IC50 is less than 100 nM.
Compound `N[C@H](Cc1ccccc1)[C@H](O)C(=O)N[C@@H](CN1CCC(C(F)(F)F)CC1)C(=O)O` [Compound 73] gave an IC50 not below 1000 nM.
Compound `N[C@H](Cc1ccccc1)[C@H](O)C(=O)N[C@H](C(=O)O)c1ccc(F)c(OC(F)(F)F)c1` [Compound 105, (S)-2-((2S,3R)-3-amino-2-hydroxy-4-phenylbutanamido)-2-(4-fluoro-3-(trifluoromethoxy)phenyl)acetic acid] showed an IC50 of less than 100 nM.
Same read-out and setting: in the case of `N[C@H](Cc1ccc(Cl)cc1)[C@H](O)C(=O)N[C@H](C(=O)O)c1cccc(OC(F)(F)F)c1` [Compound 127, (S)-2-((2S,3R)-3-amino-4-(4-chlorophenyl)-2-hydroxybutanamido)-2-(3-(trifluoromethoxy)phenyl)acetic acid] it was not below 1000 nM.
